# US7589077B2, “Antiviral nucleosides” (priority 2001, dated 2009)
# Read-outs that look alike come from different tables or passages of the source.
# How the values were obtained:
# [1] = test system: duck hepatitis B virus (DHBV); assay: DHBV DNA replication in primary duck hepatocytes (dot blot hybridization); assay type: cell-based
# Method: A series of compounds were synthesized and assayed for activity against duck hepatitis B virus (DHBV). […] Test compounds were added to the hepatocyte cultures on day 2 and maintained in culture with media changed every second day until day 12. Cell were harvested at day 14 and lysed with buffer containing 1% SDS. DNA was isolated from the lysate and dot blot hybridization was performed using a DHBV (32P) DNA probe. […]
# (§1) The compounds were assayed for a) their ability to inhibit DHBV DNA replication in duck hepatocytes, b) their ability to inhibit HBV DNA replication in HepG2 2.2.15 cells, c) the cell cytotoxicity in Vero cells, the cell viability in HFF cells, d) the cell proliferation in HFF cells, and e) the T cell proliferation (purified T cells, PHA stimulated). 3-TC was used as a control.
# whole human PBLs = assay: Cell proliferation, whole human PBLs; assay type: cell-based; details: Table 1
# HSV-1 (KOS) HSV-TK+ = HSV-1 (KOS) HSV-TK+ antiviral assay; assay type: cell-based, Herpes simplex virus type-1; details: Table 4
# Method: (§2) Cytopathic effect (CPE) inhibition assays for HSV-1, HSV-2, HCMV and VZV were performed as follows: Low passage human foreskin fibroblasts (HFF) cells were seeded into 96 well tissue culture plates 24 h prior to use at a cell concentration of 2.5×10^4 cells per mL in 0.1 mL of minimal essential medium (MEM) supplemented with 10% fetal bovine serum (FBS). The cells were then incubated for 24 h at 37° C. in a CO2 incubator. After incubation, the medium was removed and 100 μL of MEM containing 2% FBS was added to all but the first row. In the first row, 125 μL of experimental drug was added in triplicate wells. Medium alone was added to both cell and virus control […]. After incubation, the medium was removed and 100 μl of MEM containing 2% FBS was added to all but the first row. Medium alone was added to both cell and virus control wells. 125 μl of Experimental drug was added in triplicate wells. The drug in the first row of wells was then diluted serially 1:5 throughout the remaining wells by transferring 25 μL using the Cetus Liquid Handling Machine. After dilution of drugs, 100 μL of the appropriate virus concentration was added to each well, excluding the cell control wells which received 100 μL of MEM. For HSY-1 and HSV-2 assays, the virus concentration utilized was 1000 PFU's per well. For CMV and VZV assays, the virus concentration added was 2500 PFU's per well. The plates were then incubated at 37° C. in a CO2 incubator for 3 days for HSV-1 and HSV-2, 10 days for VZV, or 14 days for CMV. After the incubation period, media was aspirated and the cells stained with a 0.1% crystal violet solution for 30 min. The stain was then removed and the plates were allowed to dry 24 h and then read on a Skatron Plate Reader at 620 nm.
# HSV-1 (KOSSB) HSV-TK− = assay: microbe, parasite or virus in culture; assay type: cell-based, Herpes simplex virus type-1; details: Table 4
# Method: as §2, with “The” for “Cytopathic effect (CPE) inhibition assays for HSV-1, HSV-2, HCMV and VZV were performed as follows: Low passage human foreskin fibroblasts (HFF) cells were seeded into 96 well tissue culture plates 24 h prior to use at a cell concentration of 2.5×10^4 cells per mL in 0.1 mL of minimal essential medium (MEM) supplemented with 10% fetal bovine serum (FBS). The”
# HSV-1 (E-377) = assay: CPE inhibition assay HSV-1 (E-377) in HFF cells; assay type: cell-based, Herpes simplex virus type-1; details: Table 4
# Method: as §2
# HSV-2 (MS) = assay: CPE inhibition assay HSV-2 (MS) in HFF cells; assay type: cell-based, Herpes simplex virus type-2; details: Table 4
# Method: as §2
# VZV (Ellen) = assay: CPE inhibition assay VZV (Ellen) in HFF cells; assay type: cell-based, varicella zoster virus; details: for EC50: Human alphaherpesvirus 3, HFF, Table 2
# Method: as §2
# HCMV (AD169) = assay: CPE inhibition assay HCMV (AD169) in HFF cells; assay type: cell-based, human cytomegalovirus; details: for EC50: Human betaherpesvirus 5, AD169, HFF, Table 2
# Method: as §2
# Epstein-Barr Virus (EBV) = assay: EBV immunofluorescence assay in DAUDI cells (P3HR-1 strain); assay type: cell-based
# Method: The immunofluorescence assay, using monoclonal antibodies, for Epstein-Barr Virus (EBV) was performed as follows: DAUDI cells were infected with the P3HR-1 strain of EBV and the test drug was added after adsorption (45 min. at 37° C.) and washing of the cell cultures. These cultures were then incubated for 2 days in complete medium to allow viral gene expression. Following the 48 h incubation period, the number of cells in each sample were counted and smears were made. Monoclonal antibodies to the different early antigen (EA) components and VCA were than added to the cells, incubated and washed. This was followed by the addition of a fluorescein conjugated rabbit anti mouse Ig antibodies. The number of fluorescence positive cells in the smears were counted and the total number of cells in the cultures positive for EA or VCA were then calculated and compared.
# [2] = Cell cytotoxicity in Vero cells; assay type: cell-based; details: African green monkey, Vero cells
# Method: as §1
# [3] = Cell viability in HFF cells (neutral red); assay type: cell-based, human; details: human, HFF cells
# Method: (§3) Twenty-four hours prior to assay HFF cells were plated into 96 well plates at a concentration of 2.5×10^4 cells per well. […] The plates were incubated for 7 days in a CO2 incubator at 37° C. At this time the media/drug was aspirated and 200 μL/well of 0.01% neutral red in Dulbecco's Phosphate Buffered Saline (DPBS) was added. This was incubated in the CO2 incubator for 2 h, the dye was aspirated and the cells were washed using a Nunc Plate Washer. After removing the DPBS wash, […] of 50% EtOH: 1% glacial acetic acid in water was added. The plates were rotated for 15 min. and the optical densities were read at 550 nm on a plate reader.
# HFF cells [4] = assay: Cell proliferation assay in HFF cells; assay type: cell-based, human; details: Table 2; for IC50: Homo sapiens, HFF
# Method: The media from the wells was then aspirated and 2 mL of each drug concentration was then added to each well. The cells were incubated in a CO2 incubator at 37° C. for 72 h. At the end of this time, the media-drug solution was removed and the cells were washed. […] The cell-media mixture was then pipetted up and down vigorously to break up the cell suspension and 0.2 mL of the mixture was added to 9.8 mL of isoton III and counted using a Coulter Counter. Each sample was counted three times with three replicate wells per sample.
# Vero cells = assay: Cell cytotoxicity in Vero cells; assay type: cell-based
# Method: as §1
# HFF cells [5] = assay: Cell viability in HFF cells (neutral red); assay type: cell-based, human
# Method: as §3
# human HBV = assay: HBV DNA replication in HepG2 2.2.15 cells; assay type: cell-based, hepatitis B virus
# Method: as §1, with “control. Additional compounds described below in the Preparative Examples section were also tested, and the results are shown in Tables 2-4 below. The reference numbers for the compounds are found in the Preparative Examples.” for “control.”
# [6] = Duck hepatitis B virus, Hepatocyte, read-out: % Inh. of DHBV DNA in duck hepatocytes @ 10 μg/ml
# [7] = Duck hepatitis B virus, Hepatocyte, Table 2, value in brackets, read-out: DHBV DNA in duck hepatocytes [EC50, μg/ml]
Compound,"inhibition at 10 µg/mL [1, 6] [%]","EC50 [1, 7] [µg/mL]",CC50 ([2]; Table 2) [µg/mL],CC50 at 7 days ([3]; Table 2) [µg/mL],IC50 (HFF cells [4]) [µg/mL],EC50 (VZV (Ellen)) [µg/mL],EC50 (HCMV (AD169)) [µg/mL],also measured
"(5S,6S)-5-bromo-O^6-5′-cyclo-5,6-dihydro-3′-azido-3′-deoxythymidine [Compound R-1]",,,,,,,,"EC50 (DHBV DNA replication in duck hepatocytes) ([1]; Table 1): (EC50 = 0.035 μg/ml; IC50 (whole human PBLs): 34 µM; HSV-1 (KOS) HSV-TK+ EC50 (HSV-1 (KOS) HSV-TK+): 10 to 25 µg/mL; HSV-1 (KOSSB) HSV-TK− EC50 (HSV-1 (KOSSB) HSV-TK−): 1 to 10 µg/mL; HSV-1 (E-377) EC50, μg/ml (HSV-1 (E-377)): 20 μg/ml; HSV-2 (MS) EC50 (HSV-2 (MS)): 20 µg/mL; VZV (Ellen) EC50 (VZV (Ellen); Table 4): >100 µg/mL; HCMV (AD-169) EC50 (HCMV (AD169); Table 4): 20 µg/mL; EBV EC50 (Epstein-Barr Virus (EBV); Table 4): 1.4 µg/mL"
"C=C(N=[N+]=[N-])c1cn(COCCO)c(=O)[nH]c1=O [Compound 7, 1-[(2-hydroxyethoxy)methyl]-5-(1-azidovinyl)-uracil]",84,0.01 to 0.1,> 100,> 100,> 100,,,
"CCC1(F)C(=O)NC(=O)N([C@@H]2O[C@H](CO)[C@@H](O)[C@@H]2F)C1OC (stereo partly drawn) [RC-1, 5-Ethyl-5-fluoro-6-methoxy-5,6-dihydro-2′-arabinofluoro-2′-deoxyuridine]",,,,,,,,"Cell Cytotoxicity, Vero cells CC50 (Vero cells; Table 5): >100 µg/mL; Cell viability HFF cells CC50 (HFF cells [5]; Table 5): >100 µg/mL; EBV EC50 (Epstein-Barr Virus (EBV); Table 5): <0.08 µg/mL; EBV EC90 (Epstein-Barr Virus (EBV); Table 5, in parentheses): (EC90 = <0.08) μg/ml"
"[N-]=[N+]=NC(CI)c1cn(COC(CO)CO)c(=O)[nH]c1=O (stereo not drawn) [Compound 10c, 1-[(2-Hydroxy-1-(hydroxymethyl)ethoxy)methyl]-5-(1-azido-2-iodoethyl)uracil]",75,1 to 5,> 200,> 100,> 100,1,10,
"Nc1ccn([C@@H]2CS[C@H](CO)O2)c(=O)n1 [Compound 3-TC, lamivudine, reference compound]",96,0.01 to 0.05,,,,,,"inhibition at 1 µg/mL ([1]; Duck hepatitis B virus, Hepatocyte, read-out: % Inhibition of DHBV DNA in duck hepatocytes @1.0 μg/ml): 95%; inhibition at 10 µg/mL ([1]; Duck hepatitis B virus, Hepatocyte, read-out: % Inhibition of DHBV DNA in duck hepatocytes @10.0 μg/ml): 100%; EC50 ([1]; Duck hepatitis B virus, Hepatocyte, Table 3a, read-out: % Inhibition of DHBV DNA in duck hepatocytes EC50): 70 nM; inhibition at 0.1 µg/mL (human HBV; Hepatitis B virus, HepG2 2.2.15, read-out: % Inh. of human HBV DNA replication in HepG2 2.2.15 cells @ 0.1 μg/ml (left)): 90%; CC50 ([2]; Table 5): > 100 µg/mL; CC50 at 7 days ([3]; Table 5): > 100 µg/mL"
"[N-]=[N+]=NC(CCl)c1cn(COC(CO)CO)c(=O)[nH]c1=O (stereo not drawn) [Compound 10b, 1-[(2-Hydroxy-1-(hydroxymethyl)ethoxy)methyl]-5-(1-azido-2-chloroethyl)uracil]",75,1 to 5,> 200,> 100,> 100,5,10,
C=C(N=[N+]=[N-])c1cn(COC(CO)CO)c(=O)[nH]c1=O [Compound 13],,,,,,,,"DHBV DNA in duck hepatocytes [EC50, μg/ml] ([1]; Table 2, value in brackets): 0.01 to 0.1 µg/mL; % Inh. of DHBV DNA in duck hepatocytes @ 10 μg/ml ([1]; Table 2, 10 μg/ml): 85.6%; % Inh. of human HBV DNA replication in HepG2 2.2.15 cells @ 0.01 μg/ml (right) (human HBV; Table 2, 0.01 μg/ml): 17.0%; % Inh. of human HBV DNA replication in HepG2 2.2.15 cells @ 0.1 μg/ml (left) (human HBV; Table 2, 0.1 μg/ml): 75.4%; Cell Cytotoxicity, Vero cells CC50 (Vero cells; Table 2): >200 µg/mL; Cell viability HFF cells CC50 (HFF cells [5]; Table 2): >100 µg/mL; Cell proliferation, HFF cells IC50 (HFF cells [4]): >100 µg/mL"
"C=C(N=[N+]=[N-])c1cn(CCC(CO)CO)c(=O)[nH]c1=O [Compound 26, 1-[4-Hydroxy-3-(hydroxymethyl),1-butyl]-5-(1-azidovinyl)uracil]",93,0.01 to 0.05,> 200,> 100,> 100,,,
"CC1(F)C(=O)NC(=O)N2C3CC(N=[N+]=[N-])C(COC21)O3 [Compound R-13, (5R,6S)5-fluoro-O^6-5′-cyclo-5,6-dihydro-3′-azido-3′-deoxythymidine]",,,,,,,,% Inhibition of DHBV DNA replication in duck hepatocytes @10 μg/ml [1]: 36.0%; CC50 (Vero cells; Table 1): > 700 µM; HSV-1 (KOS) HSV-TK+ EC50 (HSV-1 (KOS) HSV-TK+): >25 µg/mL; HSV-1 (KOSSB) HSV-TK− EC50 (HSV-1 (KOSSB) HSV-TK−): >50 µg/mL
"[N-]=[N+]=NC(CCl)c1cn(CCC(CO)CO)c(=O)[nH]c1=O (stereo not drawn) [Compound 21b, 1-[4-Hydroxy-3-(hydroxymethyl)-1-butyl]-5-(1-azido-2chloroethyl)uracil]",84,0.1 to 0.5,> 200,> 100,> 100,6,1,
